Consider one compound from PMC7306898, “Concentration-Dependent Activity of Hydromethylthionine on Clinical Decline and Brain Atrophy in a Randomized Controlled Trial in Behavioral Variant Frontotemporal Dementia” (Journal of Alzheimer's Disease, 2020).

Data set [1] concerns bvFTD patients. As to the kind of experiment: Whole brain volume (WBV) change by MRI (Boundary Shift Integral). It counts as in vivo, human. The text has this: (§1) The two doses were provided in identical blister packages as visually identical oral tablets to be taken for up to 52 weeks. The primary outcome was the Addenbrookes Cognitive Examination – Revised (ACE-R). The Functional Activities Questionnaire (FAQ) and reduction in progression of whole brain atrophy were alternative co-primary outcomes. Other outcomes included: Modified Alzheimer’s Disease Cooperative Study – Clinical Global Impression of Change (Modified-CGIC) determined by a third independent rater; Frontotemporal Dementia Rating Scale (FRS); MMSE (from MMSE items incorporated into ACE-R); Addenbrookes Cognitive Examination – III (a revised version of ACE-R which excludes MMSE items subject to copyright restrictions); change in brain volume measured by MRI in frontal and temporal lobes (FTV) and lateral ventricles (LVV); and the effect of hydromethylthionine in patients with known genetic mutations associated with bvFTD. Blood was collected prospectively for the purpose of population PK analyses.
MRI scans were obtained at screening and weeks 16, 32, and 52. The acquisition protocol was standardized across sites and all data were centrally collected, quality-controlled, and analyzed by the imaging core laboratory (Bioclinica). […] For data passing quality-control, baseline volume was automatically assessed using FreeSurfer v5.3, while volume changes were assessed using Boundary Shift Integral (whole brain, lateral ventricles) and Tensor-Based Morphometry (frontal and temporal lobes). […]
The primary analyses were specified as a mixed model, repeated-measures analysis with an unstructured covariance matrix and no imputation for missing data. The model included visit (three levels corresponding to assessments at weeks 16, 32, and 52), treatment group (two levels, 4 mg or 100 mg twice a day), a visit by treatment group interaction term, use of AD-labelled medications (two levels, using or not using), geographic region (three levels: North America, Asia/Australia, Europe), and baseline value of the variable analyzed. […]

In the next data set the test system is AD patients. Details: method as in PMID 31658058. The following applies: cited from earlier work.
In data set [2] the test system is P-glycoprotein (P-gp) transporter. More on the design: method as in Investigator's Brochure. The conditions noted are these: ref Investigator's Brochure; cited from earlier work.
The subject of data set [3] is bvFTD patients. As to the kind of experiment: Frontotemporal Dementia Rating Scale (FRS), 52-week Phase III trial. The data set is classed as in vivo, human.
Source text: as §1
The primary analyses were specified as a mixed model, repeated-measures analysis with an unstructured covariance matrix and no imputation for missing data. […]

The subject of data set [4] is bvFTD patients. As to the kind of experiment: Addenbrookes Cognitive Examination – Revised (ACE-R), 52-week Phase III trial TRx-237-007. It counts as in vivo, human.
Source text: The study was designed as a 52-week Phase III, randomized, controlled, double-blind, parallel-group trial conducted between May 2013 and February 2016 at 70 sites in Canada, United States, Australia, Asia, and Europe. Eligible patients had to be younger than 80 years of age with a diagnosis of bvFTD according to criteria revised by the International bvFTD Criteria Consortium [[1, 50]], with Mini-Mental Status Examination (MMSE) score greater than or equal to 20 at screening. In order to limit inclusion of bvFTD phenocopy cases, there was an additional requirement that patients had to meet the criterion of having definite brain atrophy in frontal and/or temporal lobes scoring 2 or more on a scale previously developed by Kipps et al.. Concomitant use of acetylcholinesterase inhibitors (AChEIs) or memantine (or both) was permitted provided this was at a stable dose for at least 18 weeks before randomization to minimize any potential early symptomatic effects of these treatments. Concomitant use of antidepressant, antipsychotic (except clozapine or olanzapine), and sedative medications was also permitted at stable doses where clinically feasible. Each patient had one or more study partners participate with them in the trial as informants. […] A detailed list of inclusion and exclusion criteria is in the protocol provided in the Supplementary Material. […]
as §1, with “The primary outcome was the Addenbrookes Cognitive Examination – Revised (ACE-R). The Functional Activities Questionnaire (FAQ) and reduction in progression of whole brain atrophy were alternative co-primary outcomes.” left out, “Blood was collected prospectively for the purpose of population PK analyses.” left out

Data set [5] has as its system bvFTD patients. As to the kind of experiment: Modified-CGIC, 52-week Phase III trial. The data set is classed as in vivo, human.
Source text: as §1
The primary analyses were specified as a mixed model, repeated-measures analysis with an unstructured covariance matrix and no imputation for missing data. The model included visit (three levels corresponding to assessments at weeks 16, 32, and 52), treatment group (two levels, 4 mg or 100 mg twice a day), a visit by treatment group interaction term, use of AD-labelled medications (two levels, using or not using), geographic region (three levels: North America, Asia/Australia, Europe), and baseline value of the variable analyzed. The individual comparisons were implemented through contrasts. The Bonferroni-Holm correction was used to take account of multiplicity arising from alternative co-primary outcomes (FAQ and whole brain atrophy). We used the same method for all secondary analyses in predefined gated sequences such that no further adjustment of alpha (0.05) was needed.
The concentration-response analyses used a Mixed-effect Model Repeat Measurement (MMRM) with per-subject correction and an unstructured covariance matrix according to the following formula: […]

[6] abbreviates: 8 mg/day, plasma levels above vs below […] threshold.
[7] abbreviates: 200 mg/day (n = 104) vs 8 mg/day, 52 weeks.

Take `CN(C)c1ccc2c(c1)Sc1cc(N(C)C)ccc1N2` [hydromethylthionine, leuco-methylthioninium bis(hydromethanesulphonate)]: the “WBV: Decline±SEM for LMTM 8 mg/day group” value with bvFTD patients [1] (8 mg/day, modeled change from baseline at 52 weeks) is “–21.64±1.56 cm^3”. For the same compound, the “reduction in whole brain atrophy” value in the data set with bvFTD patients [1] (setting [6]) worked out at 42%. The “WBV: Difference±SEM from LMTM 8 mg/day for 200 mg/day” value with bvFTD patients [1] (200 mg/day vs 8 mg/day, 52 weeks) is “–1.35±2.32 cm^3”. The “steady state plasma levels with steep concentration-response relationships on cognitive and MRI outcomes in AD” value in the data set on AD patients (8 mg/day dose, AD ref 49) is 0.3 to 0.8 ng/mL. Also, in the data set with AD patients, the “estimated brain concentration required for pharmacological activity” value is recorded as 0.02–0.06 μM, the “plasma concentration threshold (Cmax,ss) identified in mild/moderate AD” value was 0.373 ng/mL and the “predicted optimal dose for treatment of AD” value is reported as “about 16 mg/day”. For the same compound, the “dose sufficient to ensure that all patients have plasma levels above the threshold required for pharmacological activity” value in the data set on AD patients (combined AD and bvFTD populations ref 49) was 16 mg/day. In the data set on AD patients (doses 150–250 mg/day, AD ref 49), the “plasma concentrations not associated with any additional benefit in AD” value is 4 to 21 ng/mL. In addition, in data set [2], the “effect of coadministration on digoxin (P-gp substrate)” value is given as “decreased concentrations” and the “induction of P-glycoprotein (P-gp) transporter” value was “w eak in ducer”. In addition, the “FRS: Decline±SEM for LMTM 8 mg/day group” value in the data set on bvFTD patients [3] (8 mg/day (n = 110), modeled change from baseline at 52 weeks) is on record as “–0.1240±0.0136”. In the data set with bvFTD patients [3] (setting [7]), the “FRS: Difference±SEM from LMTM 8 mg/day for 200 mg/day” value worked out at 0.0075±0.0206. Moreover, in the data set with bvFTD patients [4] (8 mg/day (n = 110), modeled change from baseline at 52 weeks, MITT), the “ACE-R: Decline±SEM for LMTM 8 mg/day group” value was “–9.98±1.39”. Further, the “reduction in decline on the ACE-R scale” value in the data set on bvFTD patients [4] (setting [6]) is 45%. Further, in the data set with bvFTD patients [4] (200 mg/day (n = 104) vs 8 mg/day, 52 weeks, MITT), the “ACE-R: Difference±SEM from LMTM 8 mg/day for 200 mg/day” value is “–0.49±2.10”. For the same compound, the “CGIC: Decline±SEM for LMTM 8 mg/day group” value in the data set on bvFTD patients [5] (8 mg/day (n = 110), 52 weeks) is “–1.05±0.11”. Moreover, the “reduction in decline, Modified-CGIC” value in the data set on bvFTD patients [5] (setting [6]) is reported as 48%. Also, in the data set with bvFTD patients [5] (setting [7]), the “CGIC: Difference±SEM from LMTM 8 mg/day for 200 mg/day” value is recorded as “–0.04±0.16”.
